Measurements reported in the supplement of paper PMC10307832.

Assays:
Assay in all cases: relative viability (nuclei count vs DMSO), 5 days (fraction); higher = more cells survive
Elesclomol + Palbociclib = compound: CN(NC(=O)CC(=O)NN(C)C(=S)c1ccccc1)C(=S)c1ccccc1 [Elesclomol] + CC(=O)c1c(C)c2cnc(Nc3ccc(N4CCNCC4)cn3)nc2n(C2CCCC2)c1=O [Palbociclib] (partner 0.5 µM)
How it was run: (§1)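 Lung cancer cell lines, seeded in 1536-well plates, were treated the following day by pin tool with a single drug or with five library-drug doses (not always all listed) in √10 steps on top of a fixed anchor-drug dose. Cells were fixed and nuclei stained in one step after 5 days, and nuclei were counted. Relative viability is the nuclei count for treated wells divided by that for vehicle wells, reported as medians of duplicate plates.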

Elesclomol + Bortezomib = compound: CN(NC(=O)CC(=O)NN(C)C(=S)c1ccccc1)C(=S)c1ccccc1 [Elesclomol] + CC(C)C[C@H](NC(=O)[C@H](Cc1ccccc1)NC(=O)c1cnccn1)B(O)O [Bortezomib] (partner 0.002 µM)
How it was run: as §1

Elesclomol + Foretinib = compound: CN(NC(=O)CC(=O)NN(C)C(=S)c1ccccc1)C(=S)c1ccccc1 [Elesclomol] + COc1cc2c(Oc3ccc(NC(=O)C4(C(=O)Nc5ccc(F)cc5)CC4)cc3F)ccnc2cc1OCCCN1CCOCC1 [Foretinib] (partner 0.25 µM)
How it was run: as §1

Elesclomol + Pemetrexed = compound: CN(NC(=O)CC(=O)NN(C)C(=S)c1ccccc1)C(=S)c1ccccc1 [Elesclomol] + Nc1nc2[nH]cc(CCc3ccc(C(=O)N[C@@H](CCC(=O)O)C(=O)O)cc3)c2c(=O)[nH]1 [Pemetrexed] (partner 0.2 µM)
How it was run: as §1

Elesclomol + Decitabine = compound: CN(NC(=O)CC(=O)NN(C)C(=S)c1ccccc1)C(=S)c1ccccc1 [Elesclomol] + Nc1ncn([C@H]2C[C@H](O)[C@@H](CO)O2)c(=O)n1 [Decitabine] (partner 2 µM)
How it was run: as §1

| Cell Line | relative viability (Elesclomol + Palbociclib; first compound 0.003162 µM) | relative viability (Elesclomol + Palbociclib; first compound 0.01 µM) | relative viability (Elesclomol + Palbociclib; first compound 0.03162 µM) | relative viability (Elesclomol + Palbociclib; first compound 0.1 µM) | relative viability (Elesclomol + Bortezomib; first compound 0.003162 µM) | relative viability (Elesclomol + Bortezomib; first compound 0.01 µM) | relative viability (Elesclomol + Bortezomib; first compound 0.03162 µM) | relative viability (Elesclomol + Bortezomib; first compound 0.1 µM) | relative viability (Elesclomol + Foretinib; first compound 0.003162 µM) | relative viability (Elesclomol + Foretinib; first compound 0.01 µM) | relative viability (Elesclomol + Foretinib; first compound 0.03162 µM) | relative viability (Elesclomol + Foretinib; first compound 0.1 µM) | relative viability (Elesclomol + Pemetrexed; first compound 0.003162 µM) | relative viability (Elesclomol + Pemetrexed; first compound 0.01 µM) | relative viability (Elesclomol + Pemetrexed; first compound 0.03162 µM) | relative viability (Elesclomol + Pemetrexed; first compound 0.1 µM) | relative viability (Elesclomol + Decitabine; first compound 0.003162 µM) | relative viability (Elesclomol + Decitabine; first compound 0.01 µM) | relative viability (Elesclomol + Decitabine; first compound 0.03162 µM) | relative viability (Elesclomol + Decitabine; first compound 0.1 µM) |
| --- | --- | --- | --- | --- | --- | --- | --- | --- | --- | --- | --- | --- | --- | --- | --- | --- | --- | --- | --- | --- |
| LCLC-97TM1 | 0.189 | 0.193 | 0.277 | 0.129 | 0.493 | 0.0794 | 0.0851 | 0.0274 | 0.986 | 0.952 | 0.909 | 0.418 | 0.159 | 0.133 | 0.164 | 0.0782 | 0.258 | 0.198 | 0.211 | 0.131 |
| LCLC-103H | 0.482 | 0.481 | 0.471 | 0.517 | 1.12 | 0.865 | 1.07 | 0.838 | 0.771 | 0.768 | 0.862 | 0.487 | 0.476 | 0.483 | 0.467 | 0.431 | 0.765 | 0.686 | 0.734 | 0.742 |
| LOU-NH91 | 0.518 | 0.566 | 0.535 | 0.508 | 0.537 | 0.525 | 0.423 | 0.463 | 0.902 | 0.868 | 0.862 | 0.807 | 0.401 | 0.404 | 0.487 | 0.375 | 0.868 | 0.775 | 0.756 | 0.72 |
| LU99A | 0.394 | 0.269 | 0.408 | 0.179 | 1.21 |  | 1.18 | 0.121 | 0.883 | 0.625 | 0.815 | 0.234 | 0.188 | 0.183 | 0.185 | 0.198 | 0.904 | 0.807 | 0.794 | 0.556 |
| LXF-289 | 0.627 | 0.561 | 0.548 | 0.36 | 0.997 | 0.998 | 0.968 | 0.673 | 0.979 | 0.942 | 0.894 | 0.684 | 0.894 | 0.971 | 0.867 | 0.552 | 0.395 | 0.39 | 0.389 | 0.253 |
| NCI-H23 | 0.531 | 0.413 | 0.269 | 0.127 | 1.07 |  | 0.603 | 0.119 | 0.971 | 1.03 | 0.746 | 0.247 | 0.787 | 0.568 | 0.503 | 0.12 | 0.338 | 0.338 | 0.213 | 0.147 |
| NCI-H322M | 0.387 | 0.381 | 0.331 | 0.246 | 1.17 |  | 1.25 | 1.15 | 0.837 | 0.656 | 0.356 | 0.26 | 0.515 | 0.368 | 0.293 | 0.0948 | 0.608 | 0.511 | 0.402 | 0.29 |
| NCI-H441 | 0.253 | 0.22 | 0.126 | 0.081 | 0.55 | 0.454 | 0.25 | 0.0495 | 1.07 | 0.924 | 0.513 | 0.127 | 0.239 | 0.234 | 0.18 | 0.0576 | 0.22 | 0.209 | 0.216 | 0.127 |
| NCI-H460 | 0.185 | 0.138 | 0.0179 | 0.0102 | 0.911 | 0.292 | 0.0099 | 0.0073 | 0.975 | 0.848 | 0.27 | 0.0259 | 0.0667 | 0.0599 | 0.0708 | 0.0235 | 0.433 | 0.396 | 0.107 | 0.0381 |
| NCI-H520 | 0.254 | 0.213 | 0.183 | 0.0937 | 0.481 | 0.248 | 0.2 | 0.0916 | 0.757 | 0.771 | 0.251 | 0.111 | 0.724 | 0.779 | 0.335 | 0.109 | 0.526 | 0.411 | 0.313 | 0.143 |
| NCI-H647 | 0.309 | 0.257 | 0.128 | 0.0311 | 0.924 | 0.773 | 0.589 | 0.0718 | 1.05 | 0.973 | 0.359 | 0.0921 | 0.172 | 0.158 | 0.139 | 0.0481 | 0.355 | 0.293 | 0.259 | 0.0841 |
| NCI-H650 | 0.328 | 0.292 | 0.174 | 0.133 | 1.02 | 0.309 | 0.199 | 0.198 | 1.07 | 0.509 | 0.329 | 0.243 | 0.884 | 0.728 | 0.449 | 0.191 | 0.343 | 0.281 | 0.211 | 0.16 |
| NCI-H661 | 0.408 | 0.337 | 0.235 | 0.181 | 0.635 | 0.288 | 0.209 | 0.182 | 0.885 | 0.54 | 0.275 | 0.293 | 0.884 | 0.596 | 0.38 | 0.331 | 0.58 | 0.468 | 0.296 | 0.239 |
| NCI-H838 | 0.229 | 0.189 | 0.247 | 0.143 | 0.825 | 0.581 | 0.621 | 0.609 | 1.07 | 0.854 | 0.66 | 0.419 | 0.254 | 0.217 | 0.252 | 0.195 | 0.469 | 0.433 | 0.403 | 0.249 |
| NCI-H1355 | 0.429 | 0.344 | 0.3 | 0.171 | 1.15 | 1.08 | 0.828 | 0.24 | 0.951 | 0.894 | 0.514 | 0.207 | 1.02 | 0.992 | 0.721 | 0.206 | 0.352 | 0.336 | 0.268 | 0.2 |
| NCI-H1437 | 0.3 | 0.247 | 0.257 | 0.208 | 0.388 | 0.32 | 0.268 | 0.264 | 1.11 | 0.79 | 0.609 | 0.464 | 0.317 | 0.249 | 0.224 | 0.243 | 0.602 | 0.493 | 0.438 | 0.337 |
| NCI-H1650 | 0.234 | 0.155 | 0.104 | 0.0955 | 0.229 | 0.206 | 0.165 | 0.16 | 0.525 | 0.306 | 0.132 | 0.136 | 0.304 | 0.294 | 0.333 | 0.095 | 0.306 | 0.219 | 0.16 | 0.0942 |
| NCI-H1651 | 0.509 | 0.516 | 0.532 | 0.341 | 0.859 | 0.931 | 0.872 | 0.655 | 0.727 | 0.436 | 0.0766 | 0.0932 | 0.638 | 0.61 | 0.535 | 0.432 | 0.596 | 0.608 | 0.577 | 0.4 |
| NCI-H1666 | 0.682 | 0.563 | 0.575 | 0.583 | 0.826 | 0.334 | 0.278 | 0.172 | 1.06 | 0.88 | 0.621 | 0.509 | 0.998 | 0.801 | 0.817 | 0.724 | 0.739 | 0.717 | 0.522 | 0.47 |
| NCI-H1734 | 0.334 | 0.326 | 0.132 | 0.105 | 0.957 | 0.738 | 0.405 | 0.12 | 0.882 | 0.679 | 0.221 | 0.126 | 0.436 | 0.507 | 0.234 | 0.11 | 0.483 | 0.445 | 0.188 | 0.101 |
| NCI-H1755 | 0.483 | 0.429 | 0.462 | 0.393 | 1.06 | 0.831 | 0.951 | 0.304 | 0.935 | 0.887 | 0.922 | 0.474 | 0.383 | 0.359 | 0.426 | 0.348 | 0.704 | 0.808 | 0.689 | 0.598 |
| NCI-H1915 | 0.517 | 0.381 | 0.489 | 0.206 | 0.857 |  | 1.01 | 0.526 | 1.05 |  | 1.08 | 0.793 | 0.499 | 0.456 | 0.481 | 0.286 | 0.254 | 0.265 | 0.277 | 0.205 |
| NCI-H1975 | 0.579 | 0.263 | 0.205 | 0.0984 | 0.351 | 0.316 | 0.193 | 0.109 | 0.943 | 0.832 | 0.311 | 0.164 | 0.298 | 0.292 | 0.17 | 0.133 | 0.387 | 0.386 | 0.308 | 0.189 |
| NCI-H1993 | 0.712 | 0.564 | 0.456 | 0.433 | 1.07 | 1.05 | 0.49 | 0.493 | 0.772 | 0.671 | 0.553 | 0.533 | 0.707 | 0.6 | 0.486 | 0.366 | 0.613 | 0.505 | 0.477 | 0.389 |
| NCI-H2009 | 0.224 | 0.172 | 0.116 | 0.0798 | 0.929 | 0.229 | 0.115 | 0.0727 | 1.2 | 0.97 | 0.207 | 0.171 | 1.02 | 0.982 | 0.312 | 0.115 | 0.425 | 0.245 | 0.173 | 0.118 |
| NCI-H2023 | 0.355 | 0.124 | 0.0385 | 0.0417 | 0.744 | 0.374 | 0.146 | 0.0637 | 0.67 | 0.565 | 0.0376 | 0.051 | 0.172 | 0.128 | 0.0613 | 0.0421 | 0.219 | 0.181 | 0.0903 | 0.0614 |
| NCI-H2085 | 0.459 | 0.423 | 0.333 | 0.255 | 0.938 | 0.662 | 0.577 | 0.349 | 1.09 | 0.658 | 0.462 | 0.271 | 0.911 | 0.902 | 0.64 | 0.168 | 0.561 | 0.449 | 0.355 | 0.297 |
